Target: Kv1.5 (Homo sapiens, UniProt P22460)
Experiment: Kv1.5 inhibition assay (IKur inhibitor assay per cited references)
Format: cell-based
Conditions: for Kv1.5% inhibition / inhibition at 0.3 µM: at 0.3 μM; for IC50: read-out: Kv1.5 IC50
Source text: Assays to determine the degree of activity of a compound as an IKur inhibitor are well known in the art and are described in references such as J. Gen. Physiol. Apr.; 101 (4):513-43, and Br. J. Pharmacol. 1995 May; 115(2):267-74.

Chain of Kv1.5 (P22460 whole entry): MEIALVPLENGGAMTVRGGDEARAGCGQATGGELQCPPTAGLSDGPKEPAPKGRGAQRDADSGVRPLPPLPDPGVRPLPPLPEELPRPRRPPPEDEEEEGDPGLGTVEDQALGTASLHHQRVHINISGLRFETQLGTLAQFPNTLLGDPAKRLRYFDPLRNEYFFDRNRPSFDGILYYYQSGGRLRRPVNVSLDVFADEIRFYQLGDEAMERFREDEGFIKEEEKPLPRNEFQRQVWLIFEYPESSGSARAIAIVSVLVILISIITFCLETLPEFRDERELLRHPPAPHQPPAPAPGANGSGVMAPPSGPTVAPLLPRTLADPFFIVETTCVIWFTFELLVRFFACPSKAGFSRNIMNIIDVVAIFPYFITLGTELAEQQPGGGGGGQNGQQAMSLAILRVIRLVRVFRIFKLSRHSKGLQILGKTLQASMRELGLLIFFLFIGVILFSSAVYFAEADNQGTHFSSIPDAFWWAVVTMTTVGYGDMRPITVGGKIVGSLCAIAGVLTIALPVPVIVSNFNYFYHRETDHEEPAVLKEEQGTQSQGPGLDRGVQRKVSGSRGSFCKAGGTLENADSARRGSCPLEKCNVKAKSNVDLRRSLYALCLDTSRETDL

SMILES | Kv1.5% inhibition | inhibition at 0.3 µM | other results
COc1cccc(S(=O)(=O)C2=C(C)Nc3cc(C(F)(F)F)nn3C2c2ccc(Cl)c(Cl)c2)c1 (single isomer, unassigned) [Example 39 Isomer 2, 7-(3,4-Dichlorophenyl)-6-(3-methoxyphenylsulfonyl)-5-methyl-2-(trifluoromethyl)-4,7-dihydropyrazolo[1,5-a]pyrimidine] | 79.6% |  | 
COc1ccc(S(=O)(=O)N(C)C(=O)C2=C(C)Nc3ccnn3C2c2ccc(Cl)c(Cl)c2)cc1 (racemic) [Example 73, 7-(3,4-Dichlorophenyl)-N-(4-methoxyphenylsulfonyl)-N,5-dimethyl-4,7-dihydropyrazolo[1,5-a]pyrimidine-6-carboxamide] |  | 86% | 
CC1=C(S(=O)(=O)C(C)C)C(c2ccc(Cl)c(Cl)c2)n2nc(C)cc2N1 (racemic) [Example 13, 7-(3,4-Dichlorophenyl)-6-(isopropylsulfonyl)-2,5-dimethyl-4,7-dihydropyrazolo[1,5-a]pyrimidine] |  | 15.4% | 
CCN(CC)S(=O)(=O)C1=C(C)Nc2cc(C)nn2C1c1ccc(Cl)c(Cl)c1 (single isomer, unassigned) [Example 61 Isomer 2, 7-(3,4-Dichlorophenyl)-N,N-diethyl-2,5-dimethyl-4,7-dihydropyrazolo[1,5-a]pyrimidine-6-sulfonamide] | 42.3% |  | 
CC1=C(S(=O)(=O)N(C)c2ccccc2)C(c2ccc(Cl)c(Cl)c2)n2nc(C(F)(F)F)cc2N1 (single isomer, unassigned) [Example 63 Isomer 2, 7-(3,4-Dichlorophenyl)-N,5-dimethyl-N-phenyl-2-(trifluoromethyl)-4,7-dihydropyrazolo[1,5-a]pyrimidine-6-sulfonamide] | 31% |  | 
CC1=C(S(=O)(=O)c2ccccn2)C(c2ccc(Cl)c(Cl)c2)n2nc(C)cc2N1 (single isomer, unassigned) [Example 11 Isomer 1, 7-(3,4-Dichlorophenyl)-2,5-dimethyl-6-(pyridin-2-ylsulfonyl)-4,7-dihydropyrazolo[1,5-a]pyrimidine] | 72.5% |  | 
CC1=C(S(=O)(=O)NC(C)(C)C)C(c2ccc(Cl)cc2)n2nc(C(F)(F)F)cc2N1 (racemic) [Example 57, N-tert-Butyl-7-(4-chlorophenyl)-5-methyl-2-(trifluoromethyl)-4,7-dihydropyrazolo[1,5-a]pyrimidine-6-sulfonamide] |  | 34.1% | 
CC1=C(S(=O)(=O)c2ccccc2)C(c2ccc(F)cc2)n2nc(C(F)(F)F)cc2N1 (single isomer, unassigned) [Example 36 Isomer 2, 7-(4-Fluorophenyl)-5-methyl-6-(phenylsulfonyl)-2-(trifluoromethyl)-4,7-dihydropyrazolo[1,5-a]pyrimidine] |  | 49% | 
CC1=C(C(=O)N(C)S(=O)(=O)c2ccc(Cl)cc2)C(c2ccc(Cl)c(Cl)c2)n2nc(C(F)(F)F)cc2N1 (racemic) [Example 89, N-(4-Chlorophenylsulfonyl)-7-(3,4-dichlorophenyl)-N,5-dimethyl-2-(trifluoromethyl)-4,7-dihydropyrazolo[1,5-a]pyrimidine-6-carboxamide] |  | 40% | 
CC1=C(S(=O)(=O)c2ccc(Cl)cc2)C(CC(C)C)n2nc(C(F)(F)F)cc2N1 (single isomer, unassigned) [Example 45 Isomer 1, 6-(4-Chlorophenylsulfonyl)-7-isobutyl-5-methyl-2-(trifluoromethyl)-4,7-dihydropyrazolo[1,5-a]pyrimidine] |  |  | IC50: 249 nM
CC1=C(S(=O)(=O)c2ccc(F)cc2)C(c2ccc(Cl)c(Cl)c2)n2nc(C)cc2N1 (single isomer, unassigned) [Example 1 Isomer 2, 7-(3,4-Dichlorophenyl)-6-(4-fluorophenylsulfonyl)-2,5-dimethyl-4,7-dihydropyrazolo[1,5-a]pyrimidine] | 48% |  | 
COc1ccc(S(=O)(=O)C2=C(CO)Nc3cc(C(F)(F)F)nn3C2c2ccc(Cl)cc2)cc1 (single isomer, unassigned) [Example 49 Isomer 1, (7-(4-Chlorophenyl)-6-(4-methoxyphenylsulfonyl)-2-(trifluoromethyl)-4,7-dihydropyrazolo[1,5-a]pyrimidin-5-yl)methanol] | 19.6% |  | 
COc1ccc(S(=O)(=O)C2=C(C)Nc3cc(C)nn3C2c2ccc(C)c(F)c2)cc1 (single isomer, unassigned) [Example 24 Isomer 2, 7-(3-Fluoro-4-methylphenyl)-6-(4-methoxyphenylsulfonyl)-2,5-dimethyl-4,7-dihydropyrazolo[1,5-a]pyrimidine] |  |  | IC50: 322 nM
CC1=C(C(=O)N(C)S(=O)(=O)c2c(C)noc2C)C(c2ccc(Cl)c(Cl)c2)n2nc(C)cc2N1 (single isomer, unassigned) [Example 94 Isomer 2, 7-(3,4-Dichlorophenyl)-N-(3,5-dimethylisoxazol-4-ylsulfonyl)-N,2,5-trimethyl-4,7-dihydropyrazolo[1,5-a]pyrimidine-6-carboxamide] | 63% |  | 
CCN(CC)S(=O)(=O)C1=C(C)Nc2cc(C(F)(F)F)nn2C1c1ccc(Cl)c(Cl)c1 (single isomer, unassigned) [Example 64 Isomer 2, 7-(3,4-Dichlorophenyl)-N,N-diethyl-5-methyl-2-(trifluoromethyl)-4,7-dihydropyrazolo[1,5-a]pyrimidine-6-sulfonamide] | 60% |  | 
CC1=C(C(=O)N(C)S(=O)(=O)c2ccccc2)C(c2ccc(Cl)c(Cl)c2)n2nc(C)cc2N1 (single isomer, unassigned) [Example 79 Isomer 2, 7-(3,4-Dichlorophenyl)-N,2,5-trimethyl-N-(phenylsulfonyl)-4,7-dihydropyrazolo[1,5-a]pyrimidine-6-carboxamide] | 88% |  | 
CC1=C(S(=O)(=O)c2ccc(C)cc2)C(c2ccc(Cl)cc2)n2nc(C(F)(F)F)cc2N1 (single isomer, unassigned) [Example 28 Isomer 1, 7-(4-Chlorophenyl)-5-methyl-6-tosyl-2-(trifluoromethyl)-4,7-dihydropyrazolo[1,5-a]pyrimidine] |  | 77.4% | 
CCCS(=O)(=O)N(C(=O)C1=C(C)Nc2cc(C(F)(F)F)nn2C1c1ccc(Cl)c(Cl)c1)C1CC1 (racemic) [Example 88, N-Cyclopropyl-7-(3,4-dichlorophenyl)-5-methyl-N-(propylsulfonyl)-2-(trifluoromethyl)-4,7-dihydropyrazolo[1,5-a]pyrimidine-6-carboxamide] |  | 71% | 
CC1=C(S(=O)(=O)c2ccc(Cl)cc2)C(c2ccc(C)c(F)c2)n2nc(C(F)(F)F)cc2N1 (single isomer, unassigned) [Example 42 Isomer 2, 6-(4-Chlorophenylsulfonyl)-7-(3-fluoro-4-methylphenyl)-5-methyl-2-(trifluoromethyl)-4,7-dihydropyrazolo[1,5-a]pyrimidine] | 92.9% |  | 
CC1=C(C(=O)N(C)S(=O)(=O)c2ccccc2)C(c2ccc(Cl)c(Cl)c2)n2nc(C(F)(F)F)cc2N1 (single isomer, unassigned) [Example 90 Isomer 2, 7-(3,4-Dichlorophenyl)-N,5-dimethyl-N-(phenylsulfonyl)-2-(trifluoromethyl)-4,7-dihydropyrazolo[1,5-a]pyrimidine-6-carboxamide] | 51% |  | 
COc1ccc(S(=O)(=O)C2=C(C)Nc3cc(C)nn3C2c2nc3ccccc3n2C)cc1 (single isomer, unassigned) [Example 23 Isomer 1, 6-(4-Methoxyphenylsulfonyl)-2,5-dimethyl-7-(1-methyl-1H-benzo[d]imidazol-2-yl)-4,7-dihydropyrazolo[1,5-a]pyrimidine] | 6.5% |  | 
CC1=C(S(=O)(=O)c2ccc(C)cc2)C(c2ccc(Cl)c(Cl)c2)n2nc(C)cc2N1 (single isomer, unassigned) [Example 5 Isomer 1, 7-(3,4-Dichlorophenyl)-2,5-dimethyl-6-tosyl-4,7-dihydropyrazolo[1,5-a]pyrimidine] |  |  | IC50: 48 nM
COc1ccc(S(=O)(=O)C2=C(C)Nc3cc(C)nn3C2c2ccc(Cl)cc2)cc1 (single isomer, unassigned) [Example 19 Isomer 1, 7-(4-Chlorophenyl)-6-(4-methoxyphenylsulfonyl)-2,5-dimethyl-4,7-dihydropyrazolo[1,5-a]pyrimidine] |  |  | IC50: 55 nM
CC1=C(S(=O)(=O)c2ccc(Cl)cc2)C(c2ccc(F)cc2)n2nc(C(F)(F)F)cc2N1 (single isomer, unassigned) [Example 43 Isomer 2, 6-(4-Chlorophenylsulfonyl)-7-(4-fluorophenyl)-5-methyl-2-(trifluoromethyl)-4,7-dihydropyrazolo[1,5-a]pyrimidine] | 87.3% |  | 
CC1=C(S(=O)(=O)NCc2ccccc2)C(c2ccc(Cl)cc2)n2nc(C)cc2N1 (single isomer, unassigned) [Example 55 Isomer 1, N-Benzyl-7-(4-chlorophenyl)-2,5-dimethyl-4,7-dihydropyrazolo[1,5-a]pyrimidine-6-sulfonamide] |  | 22.9% | 
COc1ccc(S(=O)(=O)C2=C(CO)Nc3cc(C(F)(F)F)nn3C2c2ccc(Cl)c(Cl)c2)cc1 (racemic) [Example 48, (7-(3,4-Dichlorophenyl)-6-(4-methoxyphenylsulfonyl)-2-(trifluoromethyl)-4,7-dihydropyrazolo[1,5-a]pyrimidin-5-yl)methanol] |  | 15% | 
COc1ccc(S(=O)(=O)C2=C(C)Nc3cc(C(F)(F)F)nn3C2c2ccc(Cl)cc2)cc1OC (single isomer, unassigned) [Example 51 Isomer 2, 7-(4-Chlorophenyl)-6-(3,4-dimethoxyphenylsulfonyl)-5-methyl-2-(trifluoromethyl)-4,7-dihydropyrazolo[1,5-a]pyrimidine] | 79.2% |  | 
CC1=C(S(=O)(=O)c2ccc(Cl)cc2)C(c2ccc(F)cc2)n2nc(C(F)(F)F)cc2N1 (single isomer, unassigned) [Example 43 Isomer 1, 6-(4-Chlorophenylsulfonyl)-7-(4-fluorophenyl)-5-methyl-2-(trifluoromethyl)-4,7-dihydropyrazolo[1,5-a]pyrimidine] |  | 83.6% | 

From patent US7507730B2, “Substituted pyrazolo[1,5-a]pyrimidines as potassium channel activators” (Bristol-Myers Squibb Company, priority 2005, dated 2009)
